The values that follow come from patent US8642070B2, “Feed additive composition for ruminants, and feed containing the same, and method of fabricating such feed additive composition for ruminants” (Bio Science Co., Ltd., priority 2004, dated 2014).

The nature of the data set: Stability of the biologically active substance at the melting temperature of the spray melt blending liquid. It counts as physicochemical. The settings on record: for Mean Content (%): liquid agitated 1 hour before injection. How it is done:
Next, stability of the biologically active substance was studied in order to determine optimum temperature for the spray melt blending liquid used in the granulation through injection. […] However, when kept warmed below 75° C., the content remains high. Based on this fact, in the case of a rumen bypass product with a biologically active substance, employing a thermally vulnerable vitamins such as a calcium pantothenate, such vitamins can be contained in the preparation without suffering from any damage when granulation through injection is carried out, limiting the temperature of spray melt blending liquid to less than 75° C.

Regarding `CSCC[C@H](N)C(=O)O` [Methionine], the “Mean Content (%)” value runs as follows: (Melting Temperature 60 °C) 100.5%; (Melting Temperature 65 °C) 100.3%; (Melting Temperature 70 °C) 103.6%; (Melting Temperature 75 °C) 104.2%; (Melting Temperature 80 °C) 109.6%.

For the compound Calcium Pantothenate, the “Mean Content (%)” value by setting is: (Melting Temperature 60 °C) 98.6%; (Melting Temperature 65 °C) 96.9%; (Melting Temperature 70 °C) 97.1%; (Melting Temperature 75 °C) 94.5%; (Melting Temperature 80 °C) 71.5%. Under “kept warmed above 90° C., extrapolated from Table 4”, the “content estimated when kept warmed above 90° C.” value is “below 50%”.

Consider `O=C(O)c1cccnc1` [Nicotinic Acid], for which the “Mean Content (%)” value (Melting Temperature 60 °C) is on record as 99.5%; the “Mean Content (%)” value (Melting Temperature 65 °C) worked out at 98.2%; the “Mean Content (%)” value (Melting Temperature 70 °C) was found to be 100.3%; the “Mean Content (%)” value (Melting Temperature 75 °C) is 101.2%; the “Mean Content (%)” value (Melting Temperature 80 °C) was 102.0%.
